Laboratory results from patent US20240294489A1 (Captor Therapeutics S.A., priority 2020, published 2024).

How the values were obtained:
Format in all cases: cell-based
MOLT-4 = assay: Cell viability, additional cell lines (CellTiter-Glo), MOLT-4; settings: Homo sapiens, MOLT-4, 72 h
Protocol: (§1) Tumor cells are grown at 37° C. in a humidified atmosphere with 5% CO2 in RPMI 1640 medium, supplemented with 10% (v/v) fetal calf serum and 50 μg/ml gentamicin for up to 20 passages, and are passaged once or twice weekly.
(§2) Cells are harvested from exponential phase cultures, counted and plated in 96 well flat-bottom microtiter plates at a cell density depending on the cell line's growth rate (4,000-20,000 cells/well depending on the cell line's growth rate, up to 60,000 for hematological cancer cell lines) in RPMI 1640 medium supplemented with 10% (v/v) fetal calf serum and 50 μg/ml gentamicin (140 μl/well). Cultures are incubated at 37° C. and 5% CO2 in a humidified atmosphere. After 24 h, 10 μl of test compounds or control medium are added and left on the cells for another 72 h. Compounds are serially diluted in DMSO, transferred in cell culture medium, and added to the assay plates by using a Tecan Freedom EVO 200 robotic platform. The DMSO concentration is kept constant at 0.3% v/v across the assay plate. Viability of cells is quantified by the CellTiter-Glo® cell viability assay (Promega G8462). After incubation of cells, 100 μl of CellTiter-Glo® One Solution Assay reagent are added to each well. Plates are shaken for 2 minutes to induce cell lysis and incubated for 20 minutes prior to reading luminescence (LU) by using the EnVision® Xcite multilabel plate reader (Perkin Elmer). […]

PL-21 = assay: Cell viability, additional cell lines (CellTiter-Glo), PL-21; settings: PL-21, 72 h; read-out: Absolute IC50
Protocol: as §1, §2

MOLM-6 = assay: Cell viability, additional cell lines (CellTiter-Glo), MOLM-6; settings: MOLM-6, 72 h
Protocol: as §1, §2

TMD8 = assay: Cell viability, additional cell lines (CellTiter-Glo), TMD8; settings: Homo sapiens, TMD8, 72 h; read-out: Absolute IC50
Protocol: as §1, §2

Kelly cells = assay: Cell viability CTG assay, Kelly; settings: 72 h, 0.001-50 μM, read-out: Kelly Geomean absolute IC50 by molecule, 72 H
Method in brief: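 Cells exposed to compound at 0.25% v/v DMSO for 72 h (37° C., 5% CO2). ATP quantified by CellTiter-Glo luminescence, normalized to DMSO control. Absolute IC50 (T/C=50%) by non-linear regression on duplicate means; geometric mean used for averages.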

SALL4 = target: T1, SALL4 (Homo sapiens, UniProt Q96SW2+Q9UJQ4); assay: SALL4 degradation in the Kelly cell line, time course; settings: Kelly cells, 0.1 μM, 3, 6, 12, 24, 48 and 72 h, FIG. 2
T1 construct: SALL4 degradation in the Kelly cell line was investigated; endogenous in cells; host or cells: Kelly
T1 sequence (Q9UJQ4 whole entry): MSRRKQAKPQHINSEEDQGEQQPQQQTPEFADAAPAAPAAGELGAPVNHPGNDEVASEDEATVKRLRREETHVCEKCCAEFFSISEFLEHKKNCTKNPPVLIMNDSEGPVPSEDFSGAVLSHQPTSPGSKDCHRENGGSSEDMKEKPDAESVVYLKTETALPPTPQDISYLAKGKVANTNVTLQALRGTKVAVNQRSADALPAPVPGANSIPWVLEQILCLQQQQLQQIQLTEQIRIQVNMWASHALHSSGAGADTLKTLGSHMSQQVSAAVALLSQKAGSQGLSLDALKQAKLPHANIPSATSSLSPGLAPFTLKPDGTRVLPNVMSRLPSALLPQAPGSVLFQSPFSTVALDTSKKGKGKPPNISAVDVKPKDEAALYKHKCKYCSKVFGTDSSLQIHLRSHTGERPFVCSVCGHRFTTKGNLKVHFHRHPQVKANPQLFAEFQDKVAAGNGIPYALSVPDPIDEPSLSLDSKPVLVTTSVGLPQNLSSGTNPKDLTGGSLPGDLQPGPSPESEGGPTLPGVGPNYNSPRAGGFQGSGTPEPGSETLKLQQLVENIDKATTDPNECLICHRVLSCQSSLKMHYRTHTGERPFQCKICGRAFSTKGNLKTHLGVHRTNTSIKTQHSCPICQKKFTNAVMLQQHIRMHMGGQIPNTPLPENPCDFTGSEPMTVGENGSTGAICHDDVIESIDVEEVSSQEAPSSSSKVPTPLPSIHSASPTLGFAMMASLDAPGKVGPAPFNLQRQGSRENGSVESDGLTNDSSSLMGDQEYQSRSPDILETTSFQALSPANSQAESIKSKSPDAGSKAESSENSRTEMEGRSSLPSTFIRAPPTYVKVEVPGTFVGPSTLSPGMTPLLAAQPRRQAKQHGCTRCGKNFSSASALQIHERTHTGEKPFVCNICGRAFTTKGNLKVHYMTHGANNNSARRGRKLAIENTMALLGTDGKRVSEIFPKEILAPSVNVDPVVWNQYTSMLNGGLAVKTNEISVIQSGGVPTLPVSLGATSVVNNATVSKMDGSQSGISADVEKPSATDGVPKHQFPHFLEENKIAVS
T1 sequence (Q96SW2 whole entry): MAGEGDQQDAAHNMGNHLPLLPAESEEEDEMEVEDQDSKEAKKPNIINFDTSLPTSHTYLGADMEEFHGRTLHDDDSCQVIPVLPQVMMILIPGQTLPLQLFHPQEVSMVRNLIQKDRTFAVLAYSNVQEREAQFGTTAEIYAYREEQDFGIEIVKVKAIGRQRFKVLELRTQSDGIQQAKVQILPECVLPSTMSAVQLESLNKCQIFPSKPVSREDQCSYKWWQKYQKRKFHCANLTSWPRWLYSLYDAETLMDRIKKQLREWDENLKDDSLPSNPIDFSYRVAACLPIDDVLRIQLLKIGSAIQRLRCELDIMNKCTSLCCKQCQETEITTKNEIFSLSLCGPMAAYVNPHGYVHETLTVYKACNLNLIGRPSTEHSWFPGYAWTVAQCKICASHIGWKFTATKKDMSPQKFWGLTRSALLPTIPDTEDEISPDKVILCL
T1 sequence (Q16531 whole entry partner): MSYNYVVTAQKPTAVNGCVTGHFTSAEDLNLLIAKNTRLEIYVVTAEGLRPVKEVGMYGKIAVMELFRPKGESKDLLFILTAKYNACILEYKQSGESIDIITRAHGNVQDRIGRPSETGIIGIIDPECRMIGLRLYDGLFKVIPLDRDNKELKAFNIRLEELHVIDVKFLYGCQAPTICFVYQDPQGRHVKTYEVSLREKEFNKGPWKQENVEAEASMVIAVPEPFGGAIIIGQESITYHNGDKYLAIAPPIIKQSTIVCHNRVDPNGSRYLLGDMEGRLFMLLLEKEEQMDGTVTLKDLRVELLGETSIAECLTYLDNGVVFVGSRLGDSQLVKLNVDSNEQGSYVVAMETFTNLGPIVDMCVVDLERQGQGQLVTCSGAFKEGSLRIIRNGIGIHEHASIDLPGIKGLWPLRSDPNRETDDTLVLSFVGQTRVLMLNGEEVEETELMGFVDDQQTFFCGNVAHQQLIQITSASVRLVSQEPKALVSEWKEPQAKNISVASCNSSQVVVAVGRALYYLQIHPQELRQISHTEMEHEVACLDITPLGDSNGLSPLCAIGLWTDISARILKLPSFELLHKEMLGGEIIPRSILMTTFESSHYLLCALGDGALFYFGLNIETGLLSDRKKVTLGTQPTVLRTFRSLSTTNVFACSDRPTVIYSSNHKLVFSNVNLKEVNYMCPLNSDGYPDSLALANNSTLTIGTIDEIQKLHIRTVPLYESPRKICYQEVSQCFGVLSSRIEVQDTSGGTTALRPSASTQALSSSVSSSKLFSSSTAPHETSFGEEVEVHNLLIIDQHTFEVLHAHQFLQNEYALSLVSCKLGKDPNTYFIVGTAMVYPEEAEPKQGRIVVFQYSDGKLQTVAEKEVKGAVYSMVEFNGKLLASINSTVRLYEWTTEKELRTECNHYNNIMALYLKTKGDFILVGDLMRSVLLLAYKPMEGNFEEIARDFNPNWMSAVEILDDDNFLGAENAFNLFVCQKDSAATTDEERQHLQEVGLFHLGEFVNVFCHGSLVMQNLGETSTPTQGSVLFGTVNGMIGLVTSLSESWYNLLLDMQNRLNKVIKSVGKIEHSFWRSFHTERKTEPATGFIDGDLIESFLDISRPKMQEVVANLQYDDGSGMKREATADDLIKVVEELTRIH
Protocol: Kelly cells were maintained in RPMI-1640 medium, supplemented with penicillin/streptomycin and 10% Fetal Bovine Serum (FBS). Cells were seeded on 6- or 12-well plates, and the compounds to be tested were added at the desired concentration range. Final DMSO concentration was 0.25%. After incubation (37° C., 5% CO2) for a specified period of time, cells were harvested, washed and cell lysates were prepared using RIPA lysis buffer. The amount of protein was determined via BCA assay, and the appropriate quantity was then loaded on the precast gel for the protein separation. After primary and secondary Ab staining, the membranes were washed and signals developed. The densitometry analysis was implemented to obtain the numeric values used later in the protein level evaluation process.

NOMO-1 = assay: Cell viability, additional cell lines (CellTiter-Glo), NOMO-1; settings: Homo sapiens, NOMO-1, 72 h; read-out: Absolute IC50
Protocol: as §1, §2

U-266 = assay: Cell viability, additional cell lines (CellTiter-Glo), U-266; settings: Homo sapiens, U-266, 72 h; read-out: Absolute IC50
Protocol: as §1, §2

Ikaros (IKZF1) = target: T2, Ikaros (IKZF1) (Homo sapiens, UniProt Q13422+Q96SW2); assay: Ikaros degradation assay, H929 cell line; settings: NCI-H929, H929 cells, 24 h, read-out: % of IKZF1 protein reduction
T2 construct: Ikaros degradation in the H929 cell line was investigated; endogenous in cells; host or cells: H929
T2 sequence (Q13422 whole entry): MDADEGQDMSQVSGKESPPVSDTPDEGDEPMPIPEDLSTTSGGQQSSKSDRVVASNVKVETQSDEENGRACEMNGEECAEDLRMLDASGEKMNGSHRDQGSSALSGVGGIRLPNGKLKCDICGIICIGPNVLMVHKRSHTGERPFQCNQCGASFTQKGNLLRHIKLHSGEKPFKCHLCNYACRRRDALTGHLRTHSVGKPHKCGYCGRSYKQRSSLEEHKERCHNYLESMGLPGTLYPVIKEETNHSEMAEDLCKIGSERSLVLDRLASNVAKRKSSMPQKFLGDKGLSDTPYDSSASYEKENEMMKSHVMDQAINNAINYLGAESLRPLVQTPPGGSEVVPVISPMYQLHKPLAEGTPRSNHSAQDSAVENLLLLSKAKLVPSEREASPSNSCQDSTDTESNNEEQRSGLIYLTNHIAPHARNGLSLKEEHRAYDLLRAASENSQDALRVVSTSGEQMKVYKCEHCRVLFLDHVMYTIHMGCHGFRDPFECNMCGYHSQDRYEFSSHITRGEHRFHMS
T2 sequence (Q96SW2 whole entry): as the sequence (Q96SW2 whole entry) above
T2 sequence (Q16531 whole entry partner): as the sequence (Q16531 whole entry partner) above
Method in brief: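 Cells were exposed to test compounds over a concentration range for 24 h at 37° C, 5% CO2, then lysed in RIPA buffer. Equal protein (BCA) was resolved by SDS-PAGE and immunoblotted. Band densitometry gave the protein levels used for evaluation.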

NCI-H929 = assay: Cell viability, additional cell lines (CellTiter-Glo), NCI-H929; settings: Homo sapiens, NCI-H929, 72 h; read-out: Absolute IC50
Protocol: as §1, §2

MOLM-13 = assay: Cell viability, additional cell lines (CellTiter-Glo), MOLM-13; settings: Homo sapiens, MOLM-13, 72 h
Protocol: as §1, §2

Kasumi-1 = assay: Cell viability, additional cell lines (CellTiter-Glo), Kasumi-1; settings: Homo sapiens; Kasumi-1, 72 h; read-out: Absolute IC50
Protocol: as §1, §2

[1] = 9.5 μM, read-out: Test/Control viability at 9.5 μM

IC50 (MOLT-4; read-out: Absolute IC50): ≥ 30 µM | IC50 (MOLM-6; read-out: Absolute IC50): 0.1 to 1 µM | inhibition at 10 µM (Ikaros (IKZF1); 10 uM): 0 to 24% | inhibition at 20 µM (Ikaros (IKZF1); 20 uM): 0 to 24% | IC50 (NCI-H929): > 30 µM | IC50 (MOLM-13; read-out: Absolute IC50): ≥ 30 µM
Compound: NCc1ccc2c(c1)CN(C1CCC(=O)NC1=O)C2=O (stereo not shown) [Compound 1, 3-(5-(aminomethyl)-1-oxoisoindolin-2-yl)piperidine-2,6-dione]
viability at 9.5 µM (MOLT-4; [1]): ≤ 60% | IC50 (PL-21): > 30 µM | viability at 9.5 µM (MOLM-6; [1]): ≤ 60% | IC50 (TMD8): > 30 µM | IC50 (Kelly cells): 0.1 to 1 µM | SALL4 degradation time course (SALL4): more rapidly and effectively than lenalidomide | IC50 (NOMO-1): > 30 µM | IC50 (U-266): > 30 µM | viability at 9.5 µM (MOLM-13; [1]): ≤ 60% | IC50 (Kasumi-1): > 30 µM
